The target of assay [1] is T1, recombinant human arginase 1 (hARG1) (Homo sapiens, UniProt P05089).
T1 construct: made in house; host or cells: E. coli
T1 sequence (P05089 1-322): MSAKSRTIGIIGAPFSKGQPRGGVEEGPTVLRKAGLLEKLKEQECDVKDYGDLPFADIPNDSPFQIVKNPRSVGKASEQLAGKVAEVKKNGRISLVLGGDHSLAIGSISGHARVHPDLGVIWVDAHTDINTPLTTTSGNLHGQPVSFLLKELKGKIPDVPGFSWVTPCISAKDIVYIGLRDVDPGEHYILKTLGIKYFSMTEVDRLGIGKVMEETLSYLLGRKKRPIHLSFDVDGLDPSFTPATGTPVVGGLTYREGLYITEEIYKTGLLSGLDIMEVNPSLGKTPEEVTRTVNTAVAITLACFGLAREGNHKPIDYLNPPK
In words: Human arginase inhibition assay (colorimetric urea detection), arginase 1. It is filed as biochemical. As to conditions: IC50 class; hydrochloride salts; 1 h at 37° C., pH 7.4, 10 mM L-arginine, 200 μM MnCl2; read-out: Activity Class (ARG I). The procedure:
(§1) Human Arginase Inhibition Assay
(§2) The inhibitory activities of the compounds of the invention were assessed using recombinant human arginases 1 and 2. Both enzymes were biosynthesized using a prokaryotic expression system (E. coli) and purified by fast protein liquid chromatography (FPLC). The compounds were screened in 96-well plates at the total reaction volume of 100 μL. Briefly, recombinant enzymes were incubated with the tested compounds for 1 h at 37° C. in the reaction buffer (100 mM sodium phosphate buffer, 130 mM NaCl, 1 mg/mL BSA, pH 7.4) containing substrate (L-arginine hydrochloride, 10 mM for hARG1 and 20 mM for hARG2) and cofactor (200 μM MnCl2). The assay is based on the detection of urea, which is generated during the conversion of L-arginine into L-omithine catalyzed by ARG1 or ARG2 (Baggio et al. J Pharmacol. Exp. Ther. 1999, 290, 1409-1416). The colorimetrically detectable product was developed by adding a mixture of reagent A (4 mM oPA, 50 mM boric acid, 1 M sulfuric acid, 0.03% Brij-35) and reagent B (4 mM NED, 50 mM boric acid, 1 M sulfuric acid, 0.03% Brij-35) in equal proportions. The absorbance for each well was measured at 515 nm and the enzyme inhibition was calculated. The urea production in the absence of any tested compound was considered as maximal enzyme activity. The absorbance at the absence of arginase (background) was subtracted from all the values. The normalized values were analyzed using GraphPad Prism 7.0 software by plotting inhibition curves and determining the IC50 values.
(§3) The inhibitory activity classes of the hydrochloride salts of the exemplary compounds according to the invention are presented in Table 1

Assay [2] deals with T2, recombinant human arginase 2 (hARG2) (Homo sapiens, UniProt P78540).
T2 construct: made in house; host or cells: E. coli
T2 sequence (P78540 23-354): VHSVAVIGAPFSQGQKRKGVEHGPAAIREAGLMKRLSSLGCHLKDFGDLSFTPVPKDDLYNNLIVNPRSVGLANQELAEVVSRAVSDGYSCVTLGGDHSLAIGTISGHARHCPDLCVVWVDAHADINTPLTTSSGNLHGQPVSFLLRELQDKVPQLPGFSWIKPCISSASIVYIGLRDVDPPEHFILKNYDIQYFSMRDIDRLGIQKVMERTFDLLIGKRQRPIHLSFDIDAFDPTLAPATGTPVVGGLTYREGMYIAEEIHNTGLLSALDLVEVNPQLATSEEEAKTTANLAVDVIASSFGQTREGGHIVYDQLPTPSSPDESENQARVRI
In words: Human arginase inhibition assay (colorimetric urea detection), arginase 2. It is filed as biochemical. Conditions: IC50 class; hydrochloride salts; 1 h at 37° C., pH 7.4, 20 mM L-arginine, 200 μM MnCl2; read-out: Activity Class (ARG II). Here is the method: as §1, §2, §3

Where a name gives a salt, the structure may show the parent alone.

As to `N[C@H](C(=O)NC[C@@H]1CC[C@@H](CCB(O)O)C[C@]1(N)C(=O)O)C1CCCC1` [Example 11, (1R,2S,5R)-1-Amino-2-(((S)-2-amino-2-cyclopentylacetamido)methyl)-5-(2-boronoethyl)cyclohexane-1-carboxylic acid dihydrochloride], the values for the IC50 in assay [1] and in assay [2] were 0.001 to 0.099 µM and 0.1 to 0.199 µM, respectively.

As for `C[C@H](N)C(=O)NC[C@@H]1CC[C@@H](CCB(O)O)C[C@]1(N)C(=O)O` [Example 1, (1R,2S,5R)-1-Amino-2-(((S)-2-aminopropanamido)methyl)-5-(2-boronoethyl)cyclohexane-1-carboxylic acid dihydrochloride], the values for the IC50 in assay [1] and in assay [2] were 0.1 to 0.199 µM and more than 0.3 µM, respectively.

Consider `NC(=O)C[C@H](N)C(=O)NC[C@@H]1CC[C@@H](CCB(O)O)C[C@]1(N)C(=O)O` [Example 15, (1R,2S,5R)-1-Amino-5-(2-boronoethyl)-2-(((S)-2,4-diamino-4-oxobutanamido)methyl)cyclohexane-1-carboxylic acid dihydrochloride], for which the results for the IC50 in assay [1] and in assay [2] were 0.2 to 0.299 µM and more than 0.3 µM, respectively.

Turning to `NC(=O)CC[C@H](N)C(=O)NC[C@@H]1CC[C@@H](CCB(O)O)C[C@]1(N)C(=O)O` [Example 28, (1R,2S,5R)-1-Amino-5-(2-boronoethyl)-2-(((S)-2,5-diamino-5-oxopentanamido)methyl)cyclohexane-1-carboxylic acid dihydrochloride], the IC50 is 0.1 to 0.199 µM in assay [1] and more than 0.3 µM in assay [2].

`N[C@@H](CS)C(=O)NC[C@@H]1CC[C@@H](CCB(O)O)C[C@]1(N)C(=O)O` [Example 27, (1R,2S,5R)-1-Amino-2-(((R)-2-amino-3-mercaptopropanamido)methyl)-5-(2-boronoethyl)cyclohexane-1-carboxylic acid dihydrochloride]: the IC50 is 0.2 to 0.299 µM in assay [1] and more than 0.3 µM in assay [2].

With `CC(C)[C@H](N)C(=O)NC[C@H]1CC[C@@H](CCB(O)O)C[C@]1(N)C(=O)O` [Example 34, (1R,2R,5R)-1-Amino-2-(((S)-2-amino-3-methylbutanamido)methyl)-5-(2-boronoethyl)cyclohexane-1-carboxylic acid dihydrochloride], the IC50 in assay [1] and in assay [2] was more than 0.3 µM throughout.

The values are drawn from US12612420B2, “Arginase inhibitors and methods of use thereof” (Molecure S.A., priority 2020, dated 2026).
